# Laboratory results: US8247211B2, “Glycopeptide antibiotics” (American Cyanamid Company, priority 2001, dated 2012)
# Tests used:
# Assay in all cases: In vitro antibacterial evaluation: minimum inhibitory concentration (MIC), broth dilution method
# Type in all cases: cell-based
# Enterococcus sp. = tested on: Enterococcus sp.
# Protocol: (§1) The minimum inhibitory concentration (MIC), the lowest concentration of the antibiotic which inhibits growth of the test organism, is determined by the broth dilution method using Muller-Hinton II […] (Baltimore Biological Laboratories) following the recommendations of the National Committee for Clinical Laboratory Standards [Methods for dilution antimicrobial susceptibility tests for bacteria that grow aerobically, approved standard M7-A2, National Committee for Clinical Laboratory Standards, Villanova, Pa].
# (§2) An inoculum level of 5×10^5 CFU/mL, and a range of antibiotic concentrations (64-0.06 μg/mL) is used. […] The test organisms include a spectrum of Gram-positive bacteria comprised of Staphylococcus sp., Streptococcus sp. and Enterococcus sp. These organisms include recent clinical isolates that are resistant to methicillin, penicillin and/or vancomycin.
# Staphylococcus sp. = details: broth dilution, 18 hours at 35° C.
# Protocol: as §1, §2
# Streptococcus sp. = tested on: Streptococcus sp.
# Protocol: as §1, §2
# Escherichia coli = tested on: Escherichia coli
# Protocol: as §1, §2
smiles,measurement,setting,value
"CC(c1ccccc1)C1NC(=O)CNC(=O)C(CO)NC(=O)C(C(O)C2CNC(=N)N2C2OC(CO)C(O)C(O)C2O)NC(=O)C(C(O)C2CNC(=NC(=O)C(C)(C)C)N2)NC(=O)C(Cc2ccc(OC3OC(CO)C(OC4OC(CO)C(O)C(O)C4O)C(O)C3O)cc2)NC1=O (stereo not drawn) [Example 155, Cyclo[glycyl-β-methylphenylalanyl-O-(4-O-hexopyranosylhexopyranosyl)tyrosyl-3-[2-[(2,2-dimethylpropanoyl)imino]imidazolidin-4-yl]seryl-3-(3-hexopyranosyl-2-iminoimidazolidin-4-yl)serylseryl]]",MIC Enterococcus avium (GC 4558),"Enterococcus sp.; Enterococcus avium (GC 4558), broth dilution, 18 hours at 35° C.",0.5 to 1 µg/mL
same,MIC Enterococcus faecalis (ATCC 29212),"Enterococcus sp.; Enterococcus faecalis (ATCC 29212), broth dilution, 18 hours at 35° C.",0.5 to 1 µg/mL
same,MIC Enterococcus faecalis (GC 4554),"Enterococcus sp.; Enterococcus faecalis (GC 4554), broth dilution, 18 hours at 35° C.",0.5 to 1 µg/mL
same,MIC Enterococcus faecalis (GC 6189),"Enterococcus sp.; Enterococcus faecalis (GC 6189), broth dilution, 18 hours at 35° C.",0.5 µg/mL
same,MIC Enterococcus faecium (GC 2243),"Enterococcus sp.; Enterococcus faecium (GC 2243), broth dilution, 18 hours at 35° C.",<0.5 to 1 µg/mL
same,MIC Enterococcus faecium (GC 4556),"Enterococcus sp.; Enterococcus faecium (GC 4556), broth dilution, 18 hours at 35° C.",1 to 2 µg/mL
same,MIC Enterococcus faecium (GC 4557),"Enterococcus sp.; Enterococcus faecium (GC 4557), broth dilution, 18 hours at 35° C.",1 to 2 µg/mL
same,MIC Enterococcus faecalis (ATCC 29212),Enterococcus sp.; strain ATCC 29212,0.5 to 1 µg/mL
same,MIC Enterococcus faecalis (GC 2242),Enterococcus sp.; strain GC 2242,0.5 to 1 µg/mL
same,MIC Enterococcus faecium (GC 2243),Enterococcus sp.; strain GC 2243,<0.5 to 1 µg/mL
same,MIC Enterococcus faecalis (GC 2691),Enterococcus sp.; strain GC 2691,0.5 µg/mL
same,MIC Enterococcus faecalis (GC 3059),Enterococcus sp.; strain GC 3059,0.5 µg/mL
same,MIC Enterococcus faecalis (GC 4554),Enterococcus sp.; strain GC 4554,0.5 to 1 µg/mL
same,MIC Enterococcus faecium (GC 4556),Enterococcus sp.; strain GC 4556,1 to 2 µg/mL
same,MIC Enterococcus faecium (GC 4557),Enterococcus sp.; strain GC 4557,1 to 2 µg/mL
same,MIC Enterococcus avium (GC 4558),Enterococcus sp.; strain GC 4558,0.5 to 1 µg/mL
same,MIC Enterococcus faecalis (GC 6189),Enterococcus sp.; strain GC 6189,0.5 µg/mL
same,MIC Coagulase Negative Staphylococcus (GC 4547),Staphylococcus sp.; 5×10^5 CFU/mL,<0.5 to 2 µg/mL
same,MIC Coagulase Negative Staphylococcus (GC 4548),Staphylococcus sp.; 5×10^5 CFU/mL,<0.5 to 1 µg/mL
same,MIC Coagulase Negative Staphylococcus (GC 4549),Staphylococcus sp.; 5×10^5 CFU/mL,<0.5 to 1 µg/mL
same,MIC Coagulase Negative Staphylococcus (GC 4551),Staphylococcus sp.; 5×10^5 CFU/mL,<0.5 to 1 µg/mL
same,MIC Coagulase Negative Staphylococcus (GC 6257),Staphylococcus sp.; 5×10^5 CFU/mL,1 µg/mL
same,MIC Coagulase Negative Staphylococcus (ID-3941),Staphylococcus sp.; 5×10^5 CFU/mL,<0.5 µg/mL
same,MIC Staphylococcus aureus (GC 3051),Staphylococcus sp.; 5×10^5 CFU/mL,0.5 µg/mL
same,MIC Staphylococcus aureus (GC 3053),Staphylococcus sp.; 5×10^5 CFU/mL,0.5 µg/mL
same,MIC Staphylococcus aureus (GC 4545),Staphylococcus sp.; 5×10^5 CFU/mL,0.5 to 1 µg/mL
same,MIC Staphylococcus haemolyticus (GC 4546),Staphylococcus sp.; 5×10^5 CFU/mL,<0.5 to 1 µg/mL
same,MIC Staphylococcus aureus (GC 3051),Staphylococcus sp.; strain GC 3051,0.5 µg/mL
same,MIC Staphylococcus aureus (GC 3053),Staphylococcus sp.; strain GC 3053,0.5 µg/mL
same,MIC Staphylococcus aureus (GC 4545),Staphylococcus sp.; strain GC 4545,0.5 to 1 µg/mL
same,MIC Staphylococcus haemolyticus (GC 4546),Staphylococcus sp.; strain GC 4546,<0.5 to 1 µg/mL
same,MIC Coagulase Negative Staphylococcus (GC 4547),Staphylococcus sp.; strain GC 4547,<0.5 to 2 µg/mL
same,MIC Coagulase Negative Staphylococcus (GC 4548),Staphylococcus sp.; strain GC 4548,<0.5 to 1 µg/mL
same,MIC Coagulase Negative Staphylococcus (GC 4549),Staphylococcus sp.; strain GC 4549,<0.5 to 1 µg/mL
same,MIC Coagulase Negative Staphylococcus (GC 4551),Staphylococcus sp.; strain GC 4551,<0.5 to 1 µg/mL
same,MIC Coagulase Negative Staphylococcus (GC 6257),Staphylococcus sp.; strain GC 6257,1 µg/mL
same,MIC Coagulase Negative Staphylococcus (ID-3941),Staphylococcus sp.; strain ID-3941,<0.5 µg/mL
same,MIC Streptococcus pneumoniae (ATCC 6301),Streptococcus sp.; strain ATCC 6301,0.12 µg/mL
same,MIC Streptococcus pneumoniae (GC 1894),Streptococcus sp.; strain GC 1894,0.12 µg/mL
same,MIC Streptococcus pyogenes (GC 4563),Streptococcus sp.; strain GC 4563,>0.12 µg/mL
same,MIC Streptococcus agalactiae (GC 4564),Streptococcus sp.; strain GC 4564,<0.12 µg/mL
same,MIC Streptococcus pyogenes (ID-3187),Streptococcus sp.; strain ID-3187,<0.5 µg/mL
same,MIC Escherichia coli (ATCC 25922),Escherichia coli; strain ATCC 25922,>64 µg/mL
same,MIC Escherichia coli (GC 4559),Escherichia coli; strain GC 4559,>64 µg/mL
same,MIC Escherichi coli (GC 4560),Escherichia coli; strain GC 4560,0.5 to 2 µg/mL
